Legend:
HEK293 = experiment: Selectivity index, ratio of IC50 for gerbil SERT expressed in HEK293 cell membranes to IC50 for gerbil NK1 receptor expressed in HEK293 cell membranes; type: cell-based; details: Gerbillinae
Substance-P receptor [1] = biological target: Substance-P receptor (Meriones unguiculatus, UniProt Q5DUB1); experiment: Displacement of [125I]-substance P from gerbil NK1 receptor expressed in HEK293 cell membranes incubated for 30 mins by liquid scintillation counting method; parameters: species or system Gerbillinae
[2] = Displacement of [3H]-citalopram from gerbil SERT expressed in HEK293 cell membranes incubated for 60 mins by liquid scintillation counting method; parameters: species or system Gerbillinae
[3] = Plasma concentration in gerbil foot tap model at 10 mg/kg, po; type: ADME, organism-based; details: gerbillinae, in vivo
Gerbillinae [4] = experiment: Inhibition of foot tapping in gerbil foot tap model at 10 mg/kg, po and treated with 3 pmol, icv GR-73632 and measured for 5 mins after animal regains righting reflex; type: functional
[5] = Drug concentration in brain of gerbil foot tap model at 10 mg/kg, po; type: ADME, organism-based; details: gerbillinae, in vivo, read-out: Drug uptake
Substance-P receptor [6] = biological target: Substance-P receptor (Homo sapiens, UniProt P25103); experiment: Binding affinity to human NK1 receptor
[7] = Ratio of drug concentration in brain to plasma of gerbil foot tap model at 10 mg/kg, po; type: ADME, organism-based; details: gerbillinae, read-out: BPR
Gerbillinae [8] = experiment: In-vivo receptor occupancy at SERT in gerbil at 30 mg/kg, po measured after 4 hrs; type: functional
Gerbillinae [9] = experiment: In-vivo receptor occupancy at SERT in gerbil at 3 to 30 mg/kg, po measured after 4 hrs; type: functional, organism-based
Gerbillinae [10] = experiment: In-vivo receptor occupancy at NK1 receptor in gerbil at 3 to 30 mg/kg, po measured after 4 hrs; type: functional
Gerbillinae [11] = experiment: In-vivo receptor occupancy at SERT in gerbil at 3 mg/kg, po measured after 4 hrs; type: functional

Chain of Substance-P receptor (Meriones unguiculatus, UniProt Q5DUB1) (Q5DUB1 whole entry): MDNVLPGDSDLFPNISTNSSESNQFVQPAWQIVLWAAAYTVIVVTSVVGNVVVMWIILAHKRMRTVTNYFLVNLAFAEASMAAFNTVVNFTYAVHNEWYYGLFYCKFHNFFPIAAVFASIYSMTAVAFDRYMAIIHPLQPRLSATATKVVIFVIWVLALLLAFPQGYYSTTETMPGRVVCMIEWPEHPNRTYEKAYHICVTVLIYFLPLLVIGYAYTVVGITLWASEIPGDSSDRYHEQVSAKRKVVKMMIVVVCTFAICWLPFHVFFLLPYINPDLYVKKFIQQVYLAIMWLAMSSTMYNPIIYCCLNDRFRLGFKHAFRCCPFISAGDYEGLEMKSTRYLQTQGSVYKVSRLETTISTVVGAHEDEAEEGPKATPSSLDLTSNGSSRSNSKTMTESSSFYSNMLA
Chain of Substance-P receptor (Homo sapiens, UniProt P25103) (P25103 whole entry): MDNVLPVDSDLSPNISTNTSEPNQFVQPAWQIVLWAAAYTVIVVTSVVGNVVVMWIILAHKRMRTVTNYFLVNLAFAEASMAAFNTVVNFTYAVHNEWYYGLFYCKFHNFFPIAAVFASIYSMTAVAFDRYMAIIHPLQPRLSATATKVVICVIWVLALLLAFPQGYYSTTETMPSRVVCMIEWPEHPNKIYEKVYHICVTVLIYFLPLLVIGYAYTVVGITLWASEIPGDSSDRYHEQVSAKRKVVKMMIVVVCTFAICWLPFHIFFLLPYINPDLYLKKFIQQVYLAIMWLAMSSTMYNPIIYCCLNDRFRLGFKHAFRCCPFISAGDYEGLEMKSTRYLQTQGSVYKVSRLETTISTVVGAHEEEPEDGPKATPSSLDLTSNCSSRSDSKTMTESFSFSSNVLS

| IC50 (Substance-P receptor [1]) | IC50 [2] | Structure (SMILES) | Ratio IC50 (HEK293) | further results |
| --- | --- | --- | --- | --- |
| 30 nM | 36 nM | FC(F)(F)c1ccc(-c2cc(COCC3(c4ccccc4)CCNCC3)cc(C(F)(F)F)c2)cc1 | 1 |  |
| 17 nM | 25 nM | COC(=O)c1ccc(-c2cc(COCC3(c4ccccc4)CCNCC3)cc(C(F)(F)F)c2)cc1 | 1 |  |
| 23 nM | 7.6 nM | Fc1ccccc1-c1cc(COCC2(c3ccccc3)CCNCC2)cc(C(F)(F)F)c1 | 0.3 |  |
| 2.8 nM | 1.8 nM | FC(F)(F)c1cc(COCC2(c3ccccc3)CCNCC2)cc(-c2ccc(Cl)cc2)c1 | 0.6 |  |
| 8.4 nM | 6.4 nM | Cc1ccc(-c2cc(COCC3(c4ccccc4)CCNCC3)cc(C(F)(F)F)c2)cc1 | 0.8 |  |
| 1.9 nM | 10 nM | N#Cc1ccc(-c2cc(COCC3(c4ccccc4)CCNCC3)cc(C(F)(F)F)c2)cn1 | 5 |  |
| 87 nM | 37 nM | COc1ccc(-n2nnnc2C)cc1COCC1(c2ccccc2)CCNCC1 | 0.4 |  |
| 54 nM | 4.2 nM | COc1ccccc1-c1cc(COCC2(c3ccccc3)CCNCC2)cc(C(F)(F)F)c1 | 0.1 |  |
| 6.3 nM | 3.7 nM | FC(F)(F)c1cc(COCC2(c3ccccc3)CCNCC2)cc(-c2ccccc2)c1 | 0.6 |  |
| 540 nM | 120 nM | FC(F)(F)c1cc(COCC2(c3ccccc3)CCNCC2)cc(-c2cccc3ccccc23)c1 | 0.2 |  |
| 3.4 nM | 14 nM | CCOc1ccc(-c2cc(COCC3(c4ccccc4)CCNCC3)cc(C(F)(F)F)c2)cc1 | 4 |  |
| 120 nM | 110 nM | FC(F)(F)c1cc(COCC2(c3ccccc3)CCNCC2)cc(-c2ccc3ccccc3c2)c1 | 0.9 |  |
| 180 nM | 70 nM | Cc1nnnn1-c1cc(COCC2(c3ccccc3)CCNCC2)cc(C(F)(F)F)c1 | 0.4 |  |
| 13 nM | 27 nM | Oc1cccc(-c2cc(COCC3(c4ccccc4)CCNCC3)cc(C(F)(F)F)c2)c1 | 2 |  |
| 1.2 nM | 2.7 nM | Cc1cc(-c2cc(COCC3(c4ccccc4)CCNCC3)cc(C(F)(F)F)c2)ccc1C#N | 2 |  |
| 8.1 nM | 4 nM | N#Cc1ccc(-c2cc(COCC3(c4ccccc4)CCNCC3)cc(C(F)(F)F)c2)nc1 | 0.5 |  |
| 700 nM | 57 nM | FC(F)(F)c1cc(COCC2(c3ccccc3)CCNCC2)cc(-n2nnnc2C(F)(F)F)c1 | 0.08 |  |
| 3.8 nM | 7.3 nM | O=[N+]([O-])c1ccc(-c2cc(COCC3(c4ccccc4)CCNCC3)cc(C(F)(F)F)c2)cc1 | 2 |  |
| 68 nM | 6.4 nM | FC(F)(F)c1cc(COCC2(c3ccccc3)CCNCC2)cc(-c2ccccc2Cl)c1 | 0.1 |  |
| 0.93 nM | 15 nM | COc1ccc(-c2cc(COCC3(c4ccccc4)CCNCC3)cc(C(F)(F)F)c2)cc1 | 16 |  |
| 0.91 nM | 3.7 nM | N#Cc1cc(F)c(-c2cc(COCC3(c4ccccc4)CCNCC3)cc(C(F)(F)F)c2)cc1F | 4 |  |
| 5 nM | 6.3 nM | Fc1cccc(-c2cc(COCC3(c4ccccc4)CCNCC3)cc(C(F)(F)F)c2)c1 | 1 |  |
| 0.45 nM | 4 nM | N#Cc1ccc(-c2cc(COCC3(c4ccccc4)CCNCC3)cc(C(F)(F)F)c2)cc1 | 9 | concentration [3]: 365 nM; inhibition in vivo at 10 mg/kg (Gerbillinae [4]): 29%; concentration [5]: 190 nM; IC50 (Substance-P receptor [6]): 0.59 nM; Kp [7]: 0.52 |
| 200 nM | 8.6 nM | FC(F)(F)c1cc(COCC2(c3ccccc3)CCNCC2)cc(-c2nnn[nH]2)c1 | 0.04 |  |

| IC50 (Substance-P receptor [1]) | IC50 [2] | Structure (SMILES) | Ratio IC50 (HEK293) | further results |
| --- | --- | --- | --- | --- |
| 0.03 nM |  | COc1ccc(-n2nnnc2C(F)(F)F)cc1CO[C@H]1CCCN[C@H]1c1ccccc1 |  |  |
| 1.6 nM | 16 nM | FC(F)(F)c1cc(COCC2(c3ccccc3)CCNCC2)cc(-c2ccncc2)c1 | 10 |  |
| 1.1 nM | 8.9 nM | N#Cc1ccc(-c2cc(COCC3(c4ccccc4)CCNCC3)cc(C(F)(F)F)c2)cc1F | 8 |  |
| 0.05 nM |  | COc1ccc(-n2cnnn2)cc1CO[C@H]1CCCN[C@H]1c1ccccc1 |  |  |
| 5.2 nM | 4.2 nM | O=[N+]([O-])c1cccc(-c2cc(COCC3(c4ccccc4)CCNCC3)cc(C(F)(F)F)c2)c1 | 0.8 |  |
| 41 nM | 7.4 nM | FC(F)(F)c1cc(COCC2(c3ccccc3)CCNCC2)cc(-c2ccccn2)c1 | 0.2 |  |
| 18 nM | 3.5 nM | CN(C)c1ccc(-c2cc(COCC3(c4ccccc4)CCNCC3)cc(C(F)(F)F)c2)cc1 | 0.2 |  |
| 49 nM | 10 nM | N#Cc1cccc(-c2cc(COCC3(c4ccccc4)CCNCC3)cc(C(F)(F)F)c2)c1 | 0.2 |  |
| 70 nM | 4.1 nM | FC(F)(F)c1cc(COCC2(c3ccccc3)CCNCC2)cc(-c2nccs2)c1 | 0.06 |  |
| 36 nM | 9.6 nM | Cn1nnc(-c2cc(COCC3(c4ccccc4)CCNCC3)cc(C(F)(F)F)c2)n1 | 0.3 |  |
| 0.05 nM |  | COc1ccc(-n2nnnc2C)cc1CO[C@H]1CCCN[C@H]1c1ccccc1 |  |  |
| 2.2 nM | 1.5 nM | Fc1ccc(-c2cc(COCC3(c4ccccc4)CCNCC3)cc(C(F)(F)F)c2)cc1 | 0.7 |  |
| 0.09 nM |  | C[C@@H](O[C@H]1OCCN(Cc2n[nH]c(=O)[nH]2)[C@H]1c1ccc(F)cc1)c1cc(C(F)(F)F)cc(C(F)(F)F)c1 [APREPITANT] |  |  |
| 1.1 nM | 3.1 nM | N#Cc1ccc(-c2cc(COCC3(c4ccccc4)CCNCC3)cc(C(F)(F)F)c2)cc1Cl | 3 |  |
| 24 nM | 14 nM | Cc1cccc(-c2cc(COCC3(c4ccccc4)CCNCC3)cc(C(F)(F)F)c2)c1 | 0.6 |  |
| 4.8 nM | 47 nM | N#Cc1c(F)c(F)c(-c2cc(COCC3(c4ccccc4)CCNCC3)cc(C(F)(F)F)c2)c(F)c1F | 10 |  |
| 25 nM | 30 nM | Nc1cccc(-c2cc(COCC3(c4ccccc4)CCNCC3)cc(C(F)(F)F)c2)c1 | 1 |  |
| 0.32 nM | 7 nM | N#Cc1c(F)cc(-c2cc(COCC3(c4ccccc4)CCNCC3)cc(C(F)(F)F)c2)cc1F | 22 |  |
| 7.1 nM | 45 nM | FC(F)(F)c1cc(COCC2(c3ccccc3)CCNCC2)cc(-c2ccc3c(c2)OCO3)c1 | 6 |  |
| 3.6 nM | 27 nM | Oc1ccc(-c2cc(COCC3(c4ccccc4)CCNCC3)cc(C(F)(F)F)c2)cc1 | 8 |  |
| 65 nM | 50 nM | Cn1nnnc1-c1cc(COCC2(c3ccccc3)CCNCC2)cc(C(F)(F)F)c1 | 0.8 |  |
| 6.5 nM | 3.5 nM | O=[N+]([O-])c1ccccc1-c1cc(COCC2(c3ccccc3)CCNCC2)cc(C(F)(F)F)c1 | 0.5 |  |
| 130 nM | 13 nM | Cc1ccccc1-c1cc(COCC2(c3ccccc3)CCNCC2)cc(C(F)(F)F)c1 | 0.1 |  |
| 47 nM | 18 nM | FC(F)(F)c1cc(COCC2(c3ccccc3)CCNCC2)cc(-c2ccco2)c1 | 0.4 |  |

| Structure (SMILES) | IC50 (Substance-P receptor [1]) | IC50 [2] | Ratio IC50 (HEK293) | further results |
| --- | --- | --- | --- | --- |
| N#Cc1ccc(-c2cc(COCC3(c4ccccc4)CCN(Cc4ccccc4)CC3)cc(C(F)(F)F)c2)cc1 | 2 nM | 800 nM | 400 |  |
| N#Cc1ccc(-c2cc(COCC3(c4ccccc4)CCN(C4CC4)CC3)cc(C(F)(F)F)c2)cc1 | 1.8 nM | 2100 nM | 1200 |  |
| CCN1CCC(COCc2cc(-c3ccc(C#N)cc3)cc(C(F)(F)F)c2)(c2ccccc2)CC1 | 0.25 nM | 420 nM | 1700 |  |
| CN1CCC(COCc2cc(-c3ccc(C#N)cc3)cc(C(F)(F)F)c2)(c2ccccc2)CC1 | 0.29 nM | 9.5 nM | 33 | concentration [3]: 526 nM; inhibition in vivo at 10 mg/kg (Gerbillinae [4]): 73%; Occ (Gerbillinae [8]): 84%; Occ (Gerbillinae [9]): Dose-dependent effect; concentration [5]: 1300 nM; IC50 (Substance-P receptor [6]): 0.2 nM; Kp [7]: 2.5; Occ (Gerbillinae [10]): 88%; Occ (Gerbillinae [11]): 11% |
| CC(C)N1CCC(COCc2cc(-c3ccc(C#N)cc3)cc(C(F)(F)F)c2)(c2ccccc2)CC1 | 0.39 nM | 450 nM | 1200 |  |

From ChEMBL document CHEMBL3596162, “Biaryls as potent, tunable dual neurokinin 1 receptor antagonists and serotonin transporter inhibitors” (Bioorg Med Chem Lett, 2015)
